Data on 18 molecules can be found in patent US20070129379A1 (priority 2005, published 2007).

Each structure is given as a SMILES string.

The term IC50 denotes the concentration that inhibits the measured activity by half.

The target in this experiment is T1, HIV-integrase (Human immunodeficiency virus type 1 group M subtype B, UniProt P12497).
T1 construct: Recombinant integrase (0.26 ng) was incubated with the beads
Description: HIV-Integrase Inhibition Activity (SPA strand transfer assay). The class given is biochemical. To be noted: recombinant integrase, biotin labeled substrate DNA on SPA beads, P33 labeled target DNA. The method, then:
HIV-Integrase Inhibition Activity. To evaluate in-vitro activity against HIV-integrase, 5 pmole of biotin labeled substrate DNA was bound to 100 μg of Streptavidin coated PVT SPA beads (Amersham Pharmacia Biotech). Recombinant integrase (0.26 ng) was incubated with the beads for 90 min at 37° C. Unbound enzyme was removed by washing the complex followed by addition of inhibitors and 0.1 fmol of P33 labeled target DNA. The reaction was stopped by adding EDTA to a final concentration of 10 mM. Samples were counted in TopCountNXT (Packard) and the CPM was used as a measure of integration. The reaction condition was as described in A. Engleman and R. Craige, J. Virol. 69, 5908-5911 (1995). The sequences of substrate and target DNA were described in Nucleic Acid Research 22, 1121-1122 (1994). Activity equal to A refers to a compound having IC50=0.002 to 0.10 μM while B and C denote compounds having IC50=0.1 to 1.0 μM and IC50≧1.0 μM respectively.
Regarding `COC(C)(C)c1nc(C(=O)NCc2ccc(F)cc2)c(O)c(=O)n1C` [Example 1, N-(4-Fluorobenzyl)-5-hydroxy-2-(2-methoxypropan-2-yl)-1-methyl-6-oxo-1,6-dihydropyrimidine-4-carboxamide], the 50% inhibitory concentration (IC50) lay within 2 to 100 nM.
Regarding `COC(C)(C)c1nc(C(=O)NCc2ccc(F)c(C)c2)c(O)c(=O)n1C` [Example 2], the IC50 is 2 to 100 nM.
In the case of `CC(C)(C)c1nc(O)c(O)c(C(=O)NCc2ccc(F)cc2)n1` [Example 3, 2-tert-Butyl-5-hydroxy-6-oxo-1,6-dihydro-pyrimidine-4-carboxylic acid 4-fluoro-benzylamide], the IC50 fell in the range of 2 to 100 nM.
Turning to `Cn1c(C(C)(C)C)nc(C(=O)NCc2ccc(F)cc2)c(O)c1=O` [Example 4, 2-tert-Butyl-5-hydroxy-1-methyl-6-oxo-1,6-dihydro-pyrimidine-4-carboxylic acid 4-fluoro-benzylamide], the IC50 was 2 to 100 nM.
`CSCCCCC(C)(C)c1nc(C(=O)NCc2ccc(F)cc2)c(O)c(=O)n1C` [Example 5]: the concentration for half-maximal inhibition (IC50) was in the range of 2 to 100 nM.
Take `Cn1c(C2(C)CCCS2)nc(C(=O)NCc2ccc(F)cc2)c(O)c1=O` (stereo not drawn) [Example 6, N-(4-Fluorobenzyl)-5-hydroxy-1-methyl-2-(2-methyl-tetrahydrothiophen-2-yl)-6-oxo-1,6-dihydropyrimidine-4-carboxamide]: the IC50 was 2 to 100 nM.
On to `Cn1c(C2(C)CCCS2)nc(C(=O)NCc2ccc(F)cc2-n2cncn2)c(O)c1=O` (stereo not drawn) [Example 7, N-(4-Fluoro-2-(1H-1,2,4-triazol-1-yl)benzyl)-5-hydroxy-1-methyl-2-(2-methyl-tetrahydrothiophen-2-yl)-6-oxo-1,6-dihydropyrimidine-4-carboxamide], for which the half-maximal inhibitory concentration (IC50) was in the range of 2 to 100 nM.
In the case of `Cn1c(C2(C)CCCS2)nc(C(=O)NCc2ccc(F)cc2S(C)(=O)=O)c(O)c1=O` (stereo not drawn) [Example 8], the half-inhibitory concentration (IC50) fell in the range of 2 to 100 nM.
With `Cn1c(C2(C)CCCO2)nc(C(=O)NCc2ccc(F)cc2)c(O)c1=O` (stereo not drawn) [Example 9] the figure was 2 to 100 nM.
With `Cn1c(C2(C)CCCO2)nc(C(=O)NCc2ccc(F)cc2-n2cncn2)c(O)c1=O` (stereo not drawn) [Example 10] the figure was 2 to 100 nM.
With `Cn1c(C2(C)CCCO2)nc(C(=O)NCc2ccc(F)cc2S(C)(=O)=O)c(O)c1=O` (stereo not drawn) [Example 11], the IC50 was in the range of 2 to 100 nM.
As to `Cn1c(C2(OCCO)CCC2)nc(C(=O)NCc2ccc(F)cc2)c(O)c1=O` [Example 12, 5-Hydroxy-2-[1-(2-hydroxy-ethoxy)-cyclobutyl]-1-methyl-6-oxo-1,6-dihydro-pyrimidine-4-carboxylic acid 4-fluoro-benzylamide], the IC50 lay within 2 to 100 nM.
Regarding `Cn1c(C2(OCCO)CCC2)nc(C(=O)NCc2ccc(F)cc2-n2cncn2)c(O)c1=O` [Example 13], the 50% inhibitory concentration (IC50) was 2 to 100 nM.
For `CSCCOC1(c2nc(C(=O)NCc3ccc(F)cc3-n3cncn3)c(O)c(=O)n2C)CCC1` [Example 14, N-(4-Fluoro-2-(1H-1,2,4-triazol-1-yl)benzyl)-5-hydroxy-1-methyl-2-(1-(2-(methylthio)-ethoxy)cyclobutyl)-6-oxo-1,6-dihydropyrimidine-4-carboxamide], the IC50 fell in the range of 2 to 100 nM.
`COCCOC1(c2nc(C(=O)NCc3ccc(F)cc3)c(O)c(=O)n2C)CCC1` [Example 15, N-(4-Fluorobenzyl)-5-hydroxy-2-(1-(2-methoxyethoxy)cyclobutyl)-1-methyl-6-oxo-1,6-dihydropyrimidine-4-carboxamide]: the concentration for half-maximal inhibition (IC50) fell in the range of 2 to 100 nM.
Turning to `COCCOC1(c2nc(C(=O)NCc3ccc(F)cc3-n3cncn3)c(O)c(=O)n2C)CCC1` [Example 16, N-(4-Fluoro-2-(1H-1,2,4-triazol-1-yl)benzyl)-5-hydroxy-2-(1-(2-methoxyethoxy)cyclobut-yl)-1-methyl-6-oxo-1,6-dihydropyrimidine-4-carboxamide], the IC50 was 2 to 100 nM.
As to `COCCOC1(c2nc(C(=O)NCc3ccc(F)cc3S(C)(=O)=O)c(O)c(=O)n2C)CCC1` [Example 17, N-(4-Fluoro-2-(methylsulfonyl)benzyl)-5-hydroxy-2-(1-(2-methoxyethoxy)cyclobutyl)-1-methyl-6-oxo-1,6-dihydropyrimidine-4-carboxamide], the half-inhibitory concentration (IC50) was 2 to 100 nM.
As for `COCCOC1(c2nc(C(=O)NCc3ccc(F)cc3S(=O)(=O)N(C)C)c(O)c(=O)n2C)CCC1` [Example 18], the IC50 lay within 2 to 100 nM.
